Each structure is given as a SMILES string. Some results are limits rather than exact numbers.

The text below walks through data of BindingDB's records for doi:10.1016/j.bmcl.2006.04.011 (Ambrilia Biopharma, 2006).

The experiment deals with T1, Dimer of Gag-Pol polyprotein [501-599] (Human immunodeficiency virus 1, UniProt P03367).
T1 construct: 501-599
Description: Protease Inhibition Assay. How it is done:
HIV-1 protease activity was measured by a continuous fluorometric assay. The proteolytic activity can be monitored by the increase in fluorescence intensity, and the protease products were analyzed by HPLC. IC50 values were determined from a dose-response curve, whereas Ki values were obtained by fitting initial rates to a tight-binding inhibition equation.

One may read the IC50 as the concentration that gives 50% inhibition. Read a low IC50 as greater potency. As to `COC(=O)N[C@@H](Cc1ccc2ccccc2c1)C(=O)NCCCCC(CO)N(CC(C)C)S(=O)(=O)c1ccc(N)cc1` (stereo partly drawn) [methyl N-[(1S)-1-{[(5R)-5-[(4-aminobenzene)(2-methylpropyl)sulfonamido]-6-hydroxyhexyl]carbamoyl}-2-(naphthalen-2-yl)ethyl]carbamate], the IC50 (pH 4.7, 30 °C) turned out to be 1.2 nM.
`COC(=O)N[C@@H](Cc1ccccc1)C(=O)NCCCCC(CO)N(CC(C)C)S(=O)(=O)c1ccc(N)cc1` (stereo partly drawn) [methyl N-[(1S)-1-{[(5R)-5-[(4-aminobenzene)(2-methylpropyl)sulfonamido]-6-hydroxyhexyl]carbamoyl}-2-phenylethyl]carbamate] gave an IC50 (pH 4.7, 30 °C) of 12 nM.
On the same count and under the same terms, with `COC(=O)N[C@@H](CCc1ccccc1)C(=O)NCCCCC(CO)N(CC(C)C)S(=O)(=O)c1ccc(N)cc1` (stereo partly drawn) [methyl N-[(1S)-1-{[(5R)-5-[(4-aminobenzene)(2-methylpropyl)sulfonamido]-6-hydroxyhexyl]carbamoyl}-3-phenylpropyl]carbamate] the figure was 40 nM.
`COC(=O)N[C@H](C(=O)NCCCCC(CO)N(CC(C)C)S(=O)(=O)c1ccc(N)cc1)c1ccccc1` (stereo partly drawn) [methyl N-[(S)-{[(5R)-5-[(4-aminobenzene)(2-methylpropyl)sulfonamido]-6-hydroxyhexyl]carbamoyl}(phenyl)methyl]carbamate]: under “pH 4.7, 30 °C”, the IC50 was greater than 300 nM.
As usually defined, the Ki is the dissociation constant of the complex between target and ligand, obtained from inhibition or displacement. Read a low Ki as higher affinity. Compound `CC(C)CN(C(CO)CCCCNC(=O)[C@@H](NC(=O)OCc1ccccn1)C(c1ccccc1)c1ccccc1)S(=O)(=O)c1ccc(N)cc1` (stereo partly drawn) [pyridin-2-ylmethyl N-[(1S)-1-{[(5R)-5-[(4-aminobenzene)(2-methylpropyl)sulfonamido]-6-hydroxyhexyl]carbamoyl}-2,2-diphenylethyl]carbamate] displayed an IC50 of 0.12 nM and a Ki of 0.4 nM.
Consider `CC(C)CN(C(CO)CCCCNC(=O)[C@@H](NC(=O)OCc1cccnc1)C(c1ccccc1)c1ccccc1)S(=O)(=O)c1ccc(N)cc1` (stereo partly drawn) [pyridin-3-ylmethyl N-[(1S)-1-{[(5R)-5-[(4-aminobenzene)(2-methylpropyl)sulfonamido]-6-hydroxyhexyl]carbamoyl}-2,2-diphenylethyl]carbamate], for which the IC50 stood at 0.48 nM and the Ki was 0.36 nM.
The like results for `CC(C)CN(C(CO)CCCCNC(=O)[C@@H](NC(=O)OCc1ccncc1)C(c1ccccc1)c1ccccc1)S(=O)(=O)c1ccc(N)cc1` (stereo partly drawn) [pyridin-4-ylmethyl N-[(1S)-1-{[(5R)-5-[(4-aminobenzene)(2-methylpropyl)sulfonamido]-6-hydroxyhexyl]carbamoyl}-2,2-diphenylethyl]carbamate] were, in that order, 0.39 nM and 0.02 nM.
For `CC(C)CN(C(CO)CCCCNC(=O)[C@@H](NC(=O)OC(C)(C)C)C(c1ccccc1)c1ccccc1)S(=O)(=O)c1ccc(N)cc1` (stereo partly drawn) [tert-butyl N-[(1S)-1-{[(5R)-5-[(4-aminobenzene)(2-methylpropyl)sulfonamido]-6-hydroxyhexyl]carbamoyl}-2,2-diphenylethyl]carbamate] the same measures were 0.4 nM and 0.5 nM.
